For data set [1], the system named is Pfeiffer. As to the kind of experiment: Induction of apoptosis in human Pfeiffer cells assessed as early apoptotic cells at 2 uM incubated for 48 hrs by annexin V-FITC staining based flow cytometry (reference value: 4.16 %). Type of data set: functional. A general note: Flow cytometry measures light scatter and fluorescence of single cells or particles in a stream.

Data set [2] is described as follows: Cmax in ICR mouse at 30 mg/kg, po measured upto 24 hrs by LC-MS/MS analysis. The class given is ADME, organism-based. On the set-up: time < 24 hrs, dose 30 mg/kg, route po. To be noted: in vivo.
Data set [3] has as its system Pfeiffer. As to the kind of experiment: Induction of apoptosis in human Pfeiffer cells assessed as late apoptotic cells at 50 uM incubated for 48 hrs by annexin V-FITC staining based flow cytometry (reference value: 7.87 %). The class given is functional.
For data set [4], the system named is Pfeiffer. As to the kind of experiment: Induction of apoptosis in human Pfeiffer cells assessed as early apoptotic cells at 10 uM incubated for 48 hrs by annexin V-FITC staining based flow cytometry (reference value: 4.16 %). The class given is functional.
In data set [5] the test system is Pfeiffer. Briefly: Antitumour activity against human Pfeiffer cells xenografted in nude mouse assessed as reduction in Ki67 expression in tumor at 75 mg/kg, po BID for 21 days by immunohistochemical analysis. The class given is functional, organism-based. To be noted: time 21.0 day. A general note: A xenograft is tissue or cells of one species grown in another, often human tumour cells in immunodeficient mice.

The subject of data set [6] is Rec1. Briefly: Antiproliferative activity against human REC1 cells assessed as cell growth inhibition incubated for 96 hrs by cell titer glo assay. Type of data set: functional, cell-based. To be noted: Rec1, 96 h. Background: Cellular ATP, detected with luciferase, serves as a proxy for viable cell number.
A short description of data set [7]: Clearance in ICR mouse at 3 mg/kg, iv measured upto 24 hrs by LC-MS/MS analysis. The class given is ADME, organism-based. The following applies: in vivo.
The test system of data set [8] is Mus musculus. Briefly: In vivo inhibition of PI3K signalling in human Pfeiffer cells xenografted in nude mouse assessed as reduction in Akt phosphorylation at Ser473 at 5 mg/kg, ip by Western blotting analysis. The class given is functional, organism-based.
Data set [9] concerns Pfeiffer. As to the kind of experiment: Induction of apoptosis in human Pfeiffer cells assessed as early apoptotic cells at 50 uM incubated for 48 hrs by annexin V-FITC staining based flow cytometry (reference value: 4.16 %). Type of data set: functional.
In data set [10] the target is Phosphatidylinositol 4,5-bisphosphate 3-kinase catalytic subunit gamma isoform (Mus musculus, UniProt Q9JHG7). Briefly: Inhibition of PI3Kgamma in C5a stimulated mouse RAW264.7 cells incubated for 10 mins by AlphaLisa assay. Type of data set: cell-based.
Data set [11] concerns SU-DHL-6. As to the kind of experiment: Inhibition of P13K signaling pathway in human SU-DHL-6 cells assessed as reduction in […] incubated for 4 hrs by Western blot analysis. Type of data set: cell-based. The following applies: dose 2-50 µM, DDE = dose-dependent effect.
Data set [12] is described as follows: Tmax in ICR mouse at 3 mg/kg, iv measured upto 24 hrs by LC-MS/MS analysis. The class given is ADME, organism-based. The following applies: in vivo.
Data set [13] relates to Z-138. Briefly: Antiproliferative activity against human Z138 cells assessed as cell growth inhibition incubated for 96 hrs by cell titer glo assay. The class given is functional, cell-based. To be noted: Z-138, 96 h.
Data set [14] in a line: Cmax in ICR mouse at 3 mg/kg, iv measured upto 24 hrs by LC-MS/MS analysis. The class given is ADME, organism-based. Further details: time < 24 hrs, dose 3 mg/kg, route iv. To be noted: in vivo.

The source made the active and inactive calls. The rule behind the calls is not given here.

Phosphatidylinositol 4,5-bisphosphate 3-kinase catalytic subunit gamma isoform, sequence (Q9JHG7 whole entry, canonical isoform): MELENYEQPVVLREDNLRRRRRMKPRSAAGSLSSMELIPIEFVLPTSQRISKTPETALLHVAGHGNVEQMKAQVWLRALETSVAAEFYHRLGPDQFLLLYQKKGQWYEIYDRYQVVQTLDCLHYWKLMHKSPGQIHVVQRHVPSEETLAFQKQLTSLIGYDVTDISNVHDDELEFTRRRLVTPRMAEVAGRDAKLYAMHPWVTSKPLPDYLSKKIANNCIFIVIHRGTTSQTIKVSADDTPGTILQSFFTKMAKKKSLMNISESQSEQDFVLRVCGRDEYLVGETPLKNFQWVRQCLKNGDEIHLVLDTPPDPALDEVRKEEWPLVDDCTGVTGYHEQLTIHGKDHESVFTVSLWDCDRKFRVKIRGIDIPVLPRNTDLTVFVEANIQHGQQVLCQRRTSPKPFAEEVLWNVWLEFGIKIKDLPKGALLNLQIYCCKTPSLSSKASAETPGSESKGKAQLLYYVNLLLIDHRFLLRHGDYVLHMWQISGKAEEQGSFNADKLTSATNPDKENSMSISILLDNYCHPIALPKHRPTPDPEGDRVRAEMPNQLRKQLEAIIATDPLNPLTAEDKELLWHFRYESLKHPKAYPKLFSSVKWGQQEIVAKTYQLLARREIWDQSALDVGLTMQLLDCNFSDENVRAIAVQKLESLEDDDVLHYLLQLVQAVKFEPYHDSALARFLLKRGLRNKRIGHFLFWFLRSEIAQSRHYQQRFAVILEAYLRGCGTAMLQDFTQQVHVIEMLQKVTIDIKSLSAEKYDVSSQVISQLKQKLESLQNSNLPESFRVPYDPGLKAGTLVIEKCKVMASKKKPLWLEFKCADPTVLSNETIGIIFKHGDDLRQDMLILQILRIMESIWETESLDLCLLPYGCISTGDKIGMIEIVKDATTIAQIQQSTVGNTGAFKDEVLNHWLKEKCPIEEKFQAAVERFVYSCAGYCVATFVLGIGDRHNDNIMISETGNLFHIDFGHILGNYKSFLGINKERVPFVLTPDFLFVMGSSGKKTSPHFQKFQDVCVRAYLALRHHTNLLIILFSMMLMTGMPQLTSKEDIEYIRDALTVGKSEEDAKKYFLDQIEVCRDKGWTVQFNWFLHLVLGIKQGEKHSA

Turning to `CCC(=O)N1CC[C@H](Nc2ncnc3sc(-c4cnc(OC)c(OC)c4)cc23)C1`, the Activity is 6.03% in [1], 43.33% in [3], 6.98% in data set [4] and 15.74% in data set [9]. Also, the Cmax (as a rule, the maximum level reached in the sampled fluid or tissue) in data set [2] came out at 372 ng/mL; in data set [14], 3190 ng/mL. Besides, the result in data set [5] was Active. The IC50 (commonly the point on the concentration scale where inhibition reaches its midpoint) was 1.21 µM in [6], 8.06 µM in data set [10] and 7.05 µM in [13]. For the same compound, the clearance (in general, a measure of how efficiently the substance is removed, as volume per time) in [7] is 36.5 mL/min/kg. Moreover, in [8], the inhibition entry was “Active”. Also, the inhibition result in data set [11] is “Dde”. Further, the time of peak concentration (Tmax) – broadly, the time at which the peak concentration occurs – in data set [12] was 4.8 min.
